Test results reported in patent publication US8575320B2, “Compositions and methods for separating, characterizing and administering soluble selenoglycoproteins” (Alltech, Inc., priority 2010, dated 2013).

Test system: gene expression in chicken breast muscle tissue
Experiment: Microarray gene expression profile in breast muscle of broilers fed different selenium sources
Assay type: in vivo
Conditions: P<0.05, FC>1.2 vs Control, 0.3 ppm Se diet, 18 days
Experimental: Breast muscle tissue from chickens referenced in Example 3 was used to assess similarities and differences in gene expression profiles elicited by the following dietary treatments: Treatment 1-basal (Control); Treatment 2-Control+0.3 ppm sodium-selenite (SS); Treatment 3-Control+0.3 ppm SEL-PLEX; Treatment 6-0.3 ppm SGP fraction extracted from SEL-PLEX (SP) at pH 4.0. […] As such, experiments were conducted during development of embodiments of the invention in order to determine if animals receiving SGP fraction pH 4.0 experienced similar in vivo effects (e.g., gene expression changes) observed in SP fed animals, or whether significant, measurable differences existed.
At 18-days of age, five chickens from each treatment group (described above and in Tables 3 and 4) were randomly selected and euthanized by argon asphyxiation, followed by cervical dislocation. Samples of breast muscle tissue (1 gram) were rapidly removed and flash frozen in liquid nitrogen. Samples were stored at −80° C. until analyzed.
Total RNA was isolated from frozen tissue using TRIZOL reagent (INVITROGEN, Carlsbad, Calif.) according to the manufacturer's protocol and purified using a RNEASY kit (QIAGEN, Valencia, Calif.). Total RNA was quantified by absorbance at 260 nm and integrity was confirmed by agarose gel electrophoresis and ethidium bromide staining of the 28S and 18S bands. […]

O=[Se](O)O [SS, sodium selenite]
number of genes significantly changed: 283
